By IC50 is commonly meant the midpoint of a concentration-inhibition curve. The low end stands for greater potency, the high end for weaker potency. As usually defined, the EC50 is the midpoint of the concentration-response curve.

Consider 13 compounds from US9745305B2, “Modulators of methyl modifying enzymes, compositions and uses thereof” (Constellation Pharmaceuticals, Inc., priority 2013, dated 2017).

Experiment [1] deals with EZH2 (Homo sapiens, UniProt Q15910). Put plainly: EZH2 Assay (3H SAM methyl transfer, rPRC2, FlashPlate). In kind it is biochemical. As to conditions: rPRC2, biotinylated oligonucleosomes, 0.2 μM 3H SAM, 2 nM EZH2. On the procedure:
(§1) EZH2 Assay: Assays were carried out by mixing rPRC2 together with biotinylated oligonucleosome substrates in the presence of the radio-labeled enzyme co-factor, S-adenosyl-L-methionine (^3H SAM) (Perkin Elmer) and monitoring the enzymatically mediated transfer of tritiated methyl groups from ^3H SAM to histone lysine residues. The amount of resulting tritiated methyl histone product was measured by first capturing the biotinylated oligonucleosomes in streptavidin (SAV) coated FlashPlates (Perkin Elmer), followed by a wash step to remove unreacted ^3H SAM, and then counting on a TopCount NXT 384 well plate scintillation counter (Perkin Elmer). The final assay conditions for EZH2 were as follows: 50 mM Tris Buffer pH 8.5, 1 mM DTT, 69 μM Brij-35 detergent, 5.0 mM MgCl2, 0.1 mg/mL BSA, 0.2 μM ^3H SAM, 0.2 μM biotinylated oligonucleosomes, 3.6 μM H3K27me3 peptide and 2 nM EZH2.
(§2) Compound IC50 measurements were obtained as follows: Compounds were first dissolved in 100% DMSO as 10 mM stock solutions. Ten point dose response curves were generated by dispensing varying amounts of the 10 mM compound solution in 10 wells of the 384 well plate (Echo; Labcyte), pure DMSO was then used to backfill the wells to insure all wells have the same amount of DMSO. A 12.5 μL volume of the HMT enzyme, H3K27me3 peptide and oligonucleosome substrate in assay buffer was added to each well of the assay plate using a Multidrop Combi (ThermoFisher). Compounds were pre-incubated with the enzyme for 20 min, followed by initiation of the methyltransferase reaction by addition of 12.5 μL of ^3H SAM in assay buffer (final volume=25 μL). The final concentrations of compounds ranged from a top default concentration of 80 μM down to 0.16 μM in ten 2-fold dilution steps. Reactions were carried out for 60 minutes and quenched with 20 μL per well of 1.96 mM SAH, 50 mM Tris pH 8.5, 200 mM EDTA. Stopped reactions were transferred to SAV coated Flashplates (Perkin Elmer), incubated for 120 min, washed with a plate washer, and then read on the TopCount NXT (1.0 min/well) to measure the amount of methyl histone product formed during the reaction. The amount of methyl histone product was compared with the amount of product formed in the 0% and 100% inhibition control wells allowing the calculation of % Inhibition in the presence of the individual compounds at various concentrations. IC50's were computed using a 4 parameter fit non-linear curve fitting software package (XLFIT, part of the database package, ActivityBase (IDBS)) where the four parameters were IC50, Hill slope, pre-transitional baseline (0% INH), and post-transitional baseline (100% INH); with the latter two parameters being fixed to zero and 100%, respectively, by default.

In experiment [2] the test system is H3K27me3 mark in Hela cells expressing wild type EZH2. Put plainly: H3K27me3 Alpha Hela Assay (AlphaLISA). The experiment is classed as cell-based. Particulars: Homo sapiens, 72 hrs, read-out: H3K27me3_Alpha_HeLa (EC50). The protocol:
H3K27me3 Alpha Hela Assay (AlphaLISA). Ten different doses of each test compound (in a series of 3-fold dilutions) were plated in duplicate 384-well tissue culture treated plates (Catalog #781080; Greiner Bio One; Monroe, N.C.). Hela cells grown in culture were trypsinized and counted using a Countess® cell counter (Catalog # C10281; Life Technologies, Grand Island, N.Y.). Cell were diluted to 67,000 cells per mL in 10% DMEM (Catalog #10569-010 Life Technologies, Grand Island, N.Y.) and 15 μL (1,000 cells) were plated into each well using the Biotek MicroFlo™ Select Dispenser (BioTek Instruments, Inc. Vermont, USA),) of the 384-well plate. Plates were incubated at 37° C./5% CO2 for 72 hrs. One of the duplicate plates was processed for HeLa assay and the other for viability.
To the plate processed for AlphaLISA was added 5 μL per well Cell-Histone Lysis buffer (1×) (Catalog # AL009F1 Perkin Elmer; Waltham, Mass.) and the plate was incubated at RT for 30 minutes on a plate shaker with low speed (Model#4625-Q Thermo Scientific; Waltham, Mass.). Then, 10 μL per well Histone Extraction buffer (catalog # AL009F2; Perkin Elmer; Waltham, Mass.) was added and the plate further incubated at RT for 20 min on plate shaker with low speed. To each well was then added 10 μL per well of a 5× mix of anti-K27me3 acceptor beads plus Biotinylated anti-Histone H3 (C-ter) Antibody (diluted to 3 nM final) (Catalog #AL118 Perkin Elmer; Waltham, Mass.). Dilution of the acceptor beads and then anti-Histone H3 was with 1× Histone Detection buffer (Catalog # AL009F3 Perkin Elmer; Waltham, Mass.) which was produced diluted from the 10× stock provided. The plate was sealed with an aluminum plate sealer and incubated at 23° C. for 60 min. We then added 10 μL 5× solution of Streptavidin Donor beads (Catalog #6760002 Perkin Elmer; Waltham, Mass.) (20 μg/mL final in 1× Histone Detection Buffer), sealed the plate with Aluminum plate sealer and incubated at 23° C. for 30 min. The plates were then read using an EnVision-Alpha Reader (model #2104 Perkin Elmer; Waltham, Mass.).
Data from both assays was analyzed using Assay Assistant (Constellation Pharmaceuticals In-house product) and Activity Base (IDBS Ltd, Surrey, UK) template. Data files were imported to Assay Assistant and assay conditions were specified. A unique Analysis ID was created and the data files exported to Activity Base. An analysis template was created on Activity Base to measure dose-dependent inhibition of H3K27me3 mark and cell viability respectively. Readout of DMSO wells were used to normalize the data. Resulting curves were fitted using Activity base software Model 205 (IDBS Ltd, Surrey, UK). The data was checked for quality, validated and integrated in excel format using SARview (IDBS Ltd, Surrey, UK).
Background: In Alpha technology, singlet oxygen from a donor bead excites a nearby acceptor bead.

Experiment [3] deals with Y641N EZH2 (Homo sapiens, UniProt Q15910, Y641N). Put plainly: Assay for Y641N EZH2 (as the EZH2 assay, H3K27Me2 oligonucleosomes as substrate). In kind it is biochemical. As to conditions: Y641N EZH2 mutant, reconstituted H3K27Me2 oligonucleosomes as substrate. The protocol: as §1, §2
Y641N EZH2, sequence (Q15910 whole entry Y641N): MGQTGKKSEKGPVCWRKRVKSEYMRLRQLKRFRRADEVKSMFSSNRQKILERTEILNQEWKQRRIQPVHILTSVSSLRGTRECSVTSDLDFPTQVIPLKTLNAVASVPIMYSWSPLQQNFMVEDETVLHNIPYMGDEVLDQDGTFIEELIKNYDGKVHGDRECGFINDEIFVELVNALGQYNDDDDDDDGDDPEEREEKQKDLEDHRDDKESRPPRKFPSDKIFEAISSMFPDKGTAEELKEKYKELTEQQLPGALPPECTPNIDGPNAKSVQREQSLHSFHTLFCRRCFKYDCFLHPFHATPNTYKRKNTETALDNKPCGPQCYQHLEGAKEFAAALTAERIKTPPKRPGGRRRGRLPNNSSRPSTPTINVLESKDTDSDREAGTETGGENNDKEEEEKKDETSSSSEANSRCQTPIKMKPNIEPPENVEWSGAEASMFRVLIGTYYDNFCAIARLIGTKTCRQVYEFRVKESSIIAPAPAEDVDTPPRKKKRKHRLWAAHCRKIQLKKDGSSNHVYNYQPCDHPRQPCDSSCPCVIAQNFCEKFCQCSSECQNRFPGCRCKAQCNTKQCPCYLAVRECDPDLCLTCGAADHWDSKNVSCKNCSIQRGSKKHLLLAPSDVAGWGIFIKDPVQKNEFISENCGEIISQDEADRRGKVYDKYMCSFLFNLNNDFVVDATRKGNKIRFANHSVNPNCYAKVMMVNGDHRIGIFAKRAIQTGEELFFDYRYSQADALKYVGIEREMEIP
Y641N EZH2, sequence (O75530 whole entry partner): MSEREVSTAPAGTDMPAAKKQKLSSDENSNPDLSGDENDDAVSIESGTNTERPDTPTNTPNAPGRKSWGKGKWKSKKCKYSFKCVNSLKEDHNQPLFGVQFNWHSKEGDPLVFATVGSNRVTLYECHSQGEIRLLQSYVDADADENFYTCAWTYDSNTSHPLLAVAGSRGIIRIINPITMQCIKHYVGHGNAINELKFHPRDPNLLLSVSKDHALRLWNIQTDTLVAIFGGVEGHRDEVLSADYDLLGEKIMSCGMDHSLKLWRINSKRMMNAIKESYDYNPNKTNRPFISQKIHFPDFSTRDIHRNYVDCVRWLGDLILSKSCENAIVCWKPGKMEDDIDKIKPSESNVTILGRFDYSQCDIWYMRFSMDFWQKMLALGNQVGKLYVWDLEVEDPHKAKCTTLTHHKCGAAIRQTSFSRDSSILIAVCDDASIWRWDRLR
Y641N EZH2, sequence (Q15022 whole entry partner): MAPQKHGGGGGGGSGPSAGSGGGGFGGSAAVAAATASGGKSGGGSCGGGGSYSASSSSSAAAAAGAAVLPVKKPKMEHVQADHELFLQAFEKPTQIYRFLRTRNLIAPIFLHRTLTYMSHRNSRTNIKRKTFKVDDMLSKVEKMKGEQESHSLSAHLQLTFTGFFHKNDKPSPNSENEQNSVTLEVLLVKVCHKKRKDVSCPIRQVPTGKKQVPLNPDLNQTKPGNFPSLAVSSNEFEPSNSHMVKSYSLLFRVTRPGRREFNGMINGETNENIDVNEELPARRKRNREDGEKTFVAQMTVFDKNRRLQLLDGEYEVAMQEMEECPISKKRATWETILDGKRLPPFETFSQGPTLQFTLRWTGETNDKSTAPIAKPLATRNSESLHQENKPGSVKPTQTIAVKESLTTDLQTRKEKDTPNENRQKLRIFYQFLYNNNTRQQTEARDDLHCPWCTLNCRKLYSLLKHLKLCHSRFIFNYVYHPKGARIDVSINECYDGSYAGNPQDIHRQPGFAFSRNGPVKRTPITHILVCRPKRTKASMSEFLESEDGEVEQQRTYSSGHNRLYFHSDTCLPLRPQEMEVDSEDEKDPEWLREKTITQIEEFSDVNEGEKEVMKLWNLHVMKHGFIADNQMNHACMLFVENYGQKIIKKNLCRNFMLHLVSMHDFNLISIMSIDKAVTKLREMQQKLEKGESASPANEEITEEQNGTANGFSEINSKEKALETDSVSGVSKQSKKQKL
Assay for Y641N EZH2 was performed as above using reconstituted H3K27Me2 oligonucleosomes as substrate.

Some results are limits rather than exact numbers.

EZH2, sequence (Q15910 whole entry): as the sequence (Q15910 whole entry Y641N) above, with N641Y counted along it
EZH2, sequence (O75530 whole entry partner): as the sequence (O75530 whole entry partner) above
EZH2, sequence (Q15022 whole entry partner): as the sequence (Q15022 whole entry partner) above

The compound `COc1ccc2c(C(=O)NCc3c(C)cc(C)[nH]c3=O)c(C)c(C(C)C3CCN(CC(C)(C)O)CC3)n2n1` (centres unmarked) [Compound 127, N-((4,6-dimethyl-2-oxo-1,2-dihydropyridin-3-yl)methyl)-7-(1-(1-(2-hydroxy-2-methylpropyl)piperidin-4-yl)ethyl)-2-methoxy-6-methylpyrrolo[1,2-b]pyridazine-5-carboxamide] gave an IC50 in experiment [1] of less than 100 nM. For the same compound, in experiment [2], the concentration for a half-maximal effect (EC50) was in the range of 2000 to 10000 nM.

For the compound `Cc1cc(C)c(CNC(=O)c2c(C)c(C(C)C3CCN(CC(C)(C)O)CC3)n3ncccc23)c(=O)[nH]1` (centres unmarked) [Compound 128, N-((4,6-dimethyl-2-oxo-1,2-dihydropyridin-3-yl)methyl)-7-(1-(1-(2-hydroxy-2-methylpropyl)piperidin-4-yl)ethyl)-6-methylpyrrolo[1,2-b]pyridazine-5-carboxamide], the IC50 in experiment [1] is less than 100 nM. In experiment [2], the EC50 was less than 400 nM.

For `COc1cc(C)[nH]c(=O)c1CNC(=O)c1c(C)c(C(C)C2CCN(CC(C)(C)F)CC2)n2ncccc12` (centres unmarked) [Compound 144, 7-(1-(1-(2-fluoro-2-methylpropyl)piperidin-4-yl)ethyl)-N-((4-methoxy-6-methyl-2-oxo-1,2-dihydropyridin-3-yl)methyl)-6-methylpyrrolo[1,2-b]pyridazine-5-carboxamide], the IC50 in experiment [1] is less than 100 nM; in experiment [3], 100 to 1000 nM. Moreover, in experiment [2], the EC50 was less than 400 nM.

`Cc1ccc2c(C(=O)NCc3c(C)cc(C)[nH]c3=O)c(C)c(C(C)C3CCN(CC(C)(C)O)CC3)n2n1` (centres unmarked) [Compound 129, N-((4,6-dimethyl-2-oxo-1,2-dihydropyridin-3-yl)methyl)-7-(1-(1-(2-hydroxy-2-methylpropyl)piperidin-4-yl)ethyl)-2,6-dimethylpyrrolo[1,2-b]pyridazine-5-carboxamide] gave an IC50 in experiment [1] of less than 100 nM. Further, the EC50 in experiment [2] is 400 to 2000 nM.

Regarding `COc1cc(C)[nH]c(=O)c1CNC(=O)c1c(C)c(C(C)C2CCN(CC(C)(F)F)CC2)n2ccncc12` (centres unmarked) [Compound 140, 6-(1-(1-(2,2-difluoropropyl)piperidin-4-yl)ethyl)-N-((4-methoxy-6-methyl-2-oxo-1,2-dihydropyridin-3-yl)methyl)-7-methylpyrrolo[1,2-a]pyrazine-8-carboxamide], the IC50 was less than 100 nM in experiment [1] and 1000 to 10000 nM in experiment [3]. Moreover, in experiment [2], the EC50 is less than 400 nM.

`COc1cc(C)[nH]c(=O)c1CNC(=O)c1c(C)c(C(C)C2CCN(CC(F)F)CC2)n2ncccc12` (centres unmarked) [Compound 145, 7-(1-(1-(2,2-difluoroethyl)piperidin-4-yl)ethyl)-N-((4-methoxy-6-methyl-2-oxo-1,2-dihydropyridin-3-yl)methyl)-6-methylpyrrolo[1,2-b]pyridazine-5-carboxamide] yielded an IC50 in experiment [1] of less than 100 nM. The EC50 in experiment [2] was less than 400 nM.

In turn, `COc1cc(C)[nH]c(=O)c1CNC(=O)c1c(C)c(C(C)C2CCN(C(=O)C(C)(C)F)CC2)n2ncccc12` (centres unmarked) [Compound 136, 7-(1-(1-(2-fluoro-2-methylpropanoyl)piperidin-4-yl)ethyl)-N-((4-methoxy-6-methyl-2-oxo-1,2-dihydropyridin-3-yl)methyl)-6-methylpyrrolo[1,2-b]pyridazine-5-carboxamide] came in with an IC50 in experiment [1] of less than 100 nM. Further, the EC50 in experiment [2] is less than 400 nM.

In turn, `COc1cc(C)[nH]c(=O)c1CNC(=O)c1c(C)c(C(C)N(C)C)n2ncccc12` (centres unmarked) [Compound 130, 7-(1-(dimethylamino)ethyl)-N-((4-methoxy-6-methyl-2-oxo-1,2-dihydropyridin-3-yl)methyl)-6-methylpyrrolo[1,2-b]pyridazine-5-carboxamide] yielded an IC50 in experiment [1] of less than 100 nM. For the same compound, the concentration for a half-maximal effect (EC50) in experiment [2] lay within 2000 to 10000 nM.

Turning to `COc1cc(C)[nH]c(=O)c1CNC(=O)c1c(C)c(C(C)C2CCN(CC(F)(F)F)CC2)n2ncccc12` (centres unmarked) [Compound 133, N-((4-methoxy-6-methyl-2-oxo-1,2-dihydropyridin-3-yl)methyl)-6-methyl-7-(1-(1-(2,2,2-trifluoroethyl)piperidin-4-yl)ethyl)pyrrolo[1,2-b]pyridazine-5-carboxamide], the IC50 in experiment [1] and in experiment [3] was less than 100 nM throughout. Also, in experiment [2], the EC50 was less than 400 nM.

In experiment [1], `COc1cc(C)[nH]c(=O)c1CNC(=O)c1c(C)c(C(C)C2CCN(CCC(F)(F)F)CC2)n2ncccc12` (centres unmarked) [Compound 134, N-((4-methoxy-6-methyl-2-oxo-1,2-dihydropyridin-3-yl)methyl)-6-methyl-7-(1-(1-(3,3,3-trifluoropropyl)piperidin-4-yl)ethyl)pyrrolo[1,2-b]pyridazine-5-carboxamide] registered an IC50 of less than 100 nM. Besides, the 50% effective concentration (EC50) in experiment [2] is 400 to 2000 nM.

For `COc1cc(C)[nH]c(=O)c1CNC(=O)c1c(C)c(C(C)C2CCN(C(=O)CC(F)(F)F)CC2)n2ncccc12` (centres unmarked) [Compound 137, N-((4-methoxy-6-methyl-2-oxo-1,2-dihydropyridin-3-yl)methyl)-6-methyl-7-(1-(1-(3,3,3-trifluoropropanoyl)piperidin-4-yl)ethyl)pyrrolo[1,2-b]pyridazine-5-carboxamide], in experiment [1], the IC50 was less than 100 nM. The EC50 in experiment [2] was less than 400 nM.

`COc1cc(C)[nH]c(=O)c1CNC(=O)c1c(Cl)c(C(C)C2CCOCC2)n2ncccc12` (centres unmarked) [Compound 132, 6-chloro-N-((4-methoxy-6-methyl-2-oxo-1,2-dihydropyridin-3-yl)methyl)-7-(1-(tetrahydro-2H-pyran-4-yl)ethyl)pyrrolo[1,2-b]pyridazine-5-carboxamide] returned an IC50 in experiment [1] of less than 100 nM. For the same compound, the EC50 in experiment [2] is less than 400 nM.

Compound `COc1cc(C)[nH]c(=O)c1CNC(=O)c1c(C)c(C(C)C2CCN(CC(C)(F)F)CC2)n2ncccc12` (centres unmarked) [Compound 143, 7-(1-(1-(2,2-difluoropropyl)piperidin-4-yl)ethyl)-N-((4-methoxy-6-methyl-2-oxo-1,2-dihydropyridin-3-yl)methyl)-6-methylpyrrolo[1,2-b]pyridazine-5-carboxamide] returned an IC50 in experiment [1] of less than 100 nM. Besides, in experiment [2], the half-maximal effective concentration (EC50) is less than 400 nM.
